{
  "source": "patent US9938328B2",
  "about": "“Use of PEDF-derived polypeptides for treating alopecia and/or hair depigmentation” (MacKay Memorial Hospital, priority 2012, dated 2018)",
  "key": {"C57BL/6 mice [1]": {"test_system": "C57BL/6 mice", "assay": "Hydrogen peroxide (oxidative stress)-induced hair loss and depigmentation in depilated mice", "format": "in vivo, mouse", "conditions": "ointment with 25 μM 44-mer", "protocol": "(§1) Before use, the stock containing the 44-mer was prepared into a working dilution, which is then mixed with an antibiotic ointment containing 5 mg/g neomycin sulfate and 12.5 mg/g bacitracin to obtain an antibiotic ointment containing 25 μM of 44-mer. As to other PEDF peptides, 5 μl of 5 mM PEDF peptide stock was gradually dissolved in ethyl alcohol (30% w/w in distilled water), and then 1-oleoyl-rac-glycerol (1% w/w, a skin penetration enhancer) and light mineral oil (1% w/w) were gradually added. The solution was finally gelled by adding hydroxypropyl methylcellulose (5% w/w) to a final volume of 1 ml. A DMSO vehicle corresponding to the peptide formulation was prepared for the purpose of in vivo comparison. FITC-29-mer was also dissolved in the same formulation for applied on top of skin to determining the follicular distribution of FITC-29-mer.\n(§2) For topical treatments, 350 mg ointment or gel containing 25 μM of PEDF peptide was spread gently over dorsal skin per mouse.\nIn this example, the relationships between the stress caused by endogenous challenge (e.g., oxidants) and hair loss and hair graying were investigated. The mice were selected and depilated as described in Example 1 above. On day-9 post-depilation, the mice were subcutaneously injected with hydrogen peroxide at a dose of 10 ml/kg body weight. […]"}, "C57BL/6 mice [2]": {"test_system": "C57BL/6 mice", "assay": "Chemotherapy (CYP)-induced hair loss and depigmentation in depilated mice, topical 44-mer ointment", "format": "in vivo, mouse", "protocol": "as §1, §2\nFor immunostaining, de-paraffinized tissue sections were blocked with 10% goat serum for 1 hour. Dual staining was done using primary antibodies against c-kit (1:100 dilution; red) and tyrosinase (1:100 dilution) at 37° C. for 2 hours, followed by incubation with the rhodamine-conjugated goat anti-rabbit IgG antibody (1:500 dilution) for 1 hour at room temperature a before counterstaining with hematoxylin (blue) for about 7 minutes.\nThe vibrissae follicle cryosections were washed three times in PBS. Formalin-fixed, paraffin-embedded skin specimens were deparaffinized in xylene and rehydrated in a graded series of ethanol. Sections were then stained with TdT-mediated dUTP nick-end labeling (TUNEL)-based kit (Roche Molecular Biochemicals, Indianapolis, Ind.) following the manufacturer's instructions. The cell number was monitored by counterstaining with Hoechst 33258 (blue). The nuclei were calculated in ten randomly selected fields of the three different chambers by a Zeiss epifluorescence microscope (400×, 10 fields/sample). Pictures were recorded on Zeiss software.\n6-week-old female C57BL/6 mice that had normal black fur (i.e., those had heavily melanized terminal hair shafts) were used in this example. In four independent experiments, a total of 80 mice were used. C57BL-6 mice have been widely used in the research of alopecia and hair-depigmentation induced by chemotherapy. Only mice in the resting stage of the hair cycle (telogen) were used in these studies. Since pigment production (melanogenesis) in mice occurs exclusively in anagen follicles, telogen C57BL-6 mice could be recognized by the homogeneously pink color of their back skin. Anagen was induced in the back skin of telogen mice by depilation.\nIn order to obtain mice that were in exactly the same stage of anagen development, the dorsal hairs were carefully shaved with an electric clipper. Nine days after the depilation, hair grown to anagen phase as judged by skin color from pink (telogen skin) to gray (early stage of anagen VI).\nOn day-9 post-depilation, mice were anesthetized by an intraperitoneal injection of a mixture of zoletil (6 mg/kg) and xylazine (3 mg/kg). Mice were randomly assigned to the following experimental groups. In the CYP/vehicle group, mice received intraperitoneal injection of cyclophosphamide (CYP, an anti-cancer drug) (150 mg/kg), and 350 mg antibiotic ointment was applied to the back skin at the same time. […]"}},
  "data": [
    {"sequence": "VLLSPLSVATALSALSLGAEQRTESIIHRALYYDLISSPDIHGT [44-mer, 44-mer fragment (residues 78-121) of human PEDF]", "values": [
      {"measurement": "hair growth activity versus H2O2/vehicle (photographs, FIG. 4)", "setting": "C57BL/6 mice [1]; 22 days after the H2O2 injection (10 ml/kg s.c.)", "result": "better hair growth activity"},
      {"measurement": "hair color versus H2O2/vehicle (FIG. 4)", "setting": "C57BL/6 mice [1]; 22 days after the H2O2 injection", "result": "darker"},
      {"measurement": "hair growth activity versus CYP/vehicle (photographs, FIG. 1)", "setting": "C57BL/6 mice [2]; 7 and 36 days after the CYP injection", "result": "better hair growth activity"},
      {"measurement": "hair colour versus CYP and CYP/vehicle groups (FIG. 1)", "setting": "C57BL/6 mice [2]; 36 days after CYP injection", "result": "substantially darker hairs"},
      {"measurement": "TUNNEL Labeling Index (%)", "setting": "C57BL/6 mice [2]; no CYP injection, 350 mg antibiotic ointment containing 44-mer on back skin", "result": "<0.1", "unit": "%"},
      {"measurement": "TUNNEL Labeling Index (%)", "setting": "C57BL/6 mice [2]; with CYP 150 mg/kg i.p., 350 mg antibiotic ointment containing 25 μM 44-mer on back skin daily", "result": "10.6 ± 1.4", "unit": "%"},
      {"measurement": "c-kit and tyrosinase expression in the bulge (immunostaining, FIG. 3)", "setting": "C57BL/6 mice [2]; with CYP, barely detected in CYP/vehicle group", "result": "c-kit and tyrosinase expression were found in the bulge"}
    ]}
  ]
}
